Molecular target: T1, SIRT1 (Homo sapiens, UniProt Q96EB6)
T1 sequence (Q96EB6 1-747): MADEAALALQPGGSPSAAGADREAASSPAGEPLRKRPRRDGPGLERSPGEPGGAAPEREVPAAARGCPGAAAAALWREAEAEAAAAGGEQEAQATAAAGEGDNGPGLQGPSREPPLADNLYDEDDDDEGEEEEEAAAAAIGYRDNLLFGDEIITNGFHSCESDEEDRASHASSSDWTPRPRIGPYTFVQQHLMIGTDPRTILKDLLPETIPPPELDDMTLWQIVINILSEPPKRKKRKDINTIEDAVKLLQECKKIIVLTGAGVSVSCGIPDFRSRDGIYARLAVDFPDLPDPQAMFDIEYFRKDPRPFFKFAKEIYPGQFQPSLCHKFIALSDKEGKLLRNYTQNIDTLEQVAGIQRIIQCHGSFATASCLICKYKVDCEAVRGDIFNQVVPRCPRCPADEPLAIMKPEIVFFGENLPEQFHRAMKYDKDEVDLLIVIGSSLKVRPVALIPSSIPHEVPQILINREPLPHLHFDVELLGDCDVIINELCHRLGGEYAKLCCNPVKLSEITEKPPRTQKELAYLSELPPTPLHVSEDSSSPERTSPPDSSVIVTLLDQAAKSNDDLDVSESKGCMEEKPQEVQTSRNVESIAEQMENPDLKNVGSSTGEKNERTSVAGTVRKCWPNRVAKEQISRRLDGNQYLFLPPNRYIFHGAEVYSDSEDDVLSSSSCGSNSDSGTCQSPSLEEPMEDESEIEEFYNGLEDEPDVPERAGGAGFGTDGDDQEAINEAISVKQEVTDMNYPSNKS
Assay: Mass spectrometry based SIRT1 deacetylation (activation) assay
Type: biochemical
Settings: 0.5 μM peptide substrate, 120 μM βNAD+, 10 nM SIRT1, 25 min at 25° C.; for Emax: 25 min, read-out: % Fold Act. (percent maximum fold activation)

Structure (SMILES)	EC1.5	Emax [%]
CN(C)CCNc1cc(C(=O)Nc2ccccc2C(=O)Nc2cc(Cl)ccc2Cl)nc(-c2ccccc2)n1 [Compound 161, N-(2-(2,5-dichlorophenylcarbamoyl)phenyl)-6-(2-(dimethylamino)ethylamino)-2-phenylpyrimidine-4-carboxamide]	B (EC1.5>1 and ≦10 uM)	150 to 300
CN(C)CCNc1cc(C(=O)Nc2ccccc2-c2ncc(C(C)(C)C)s2)nc(-c2ccccc2)c1 [Compound 29]	B (EC1.5>1 and ≦10 uM)	≥ 300
CCN(CCN(C)C)c1cc(C(=O)Nc2ccccc2C(=O)N[C@@H]2CCCC[C@@H]2O)nc(-c2ccccc2)n1 [Compound 170, 6-((2-(dimethylamino)ethyl)(ethyl)amino)-N-(2-((1R,2S)-2-hydroxycyclohexylcarbamoyl)phenyl)-2-phenylpyrimidine-4-carboxamide]	A (EC1.5≦1 uM)	≥ 300
CCCc1nnc(-c2ccccc2NC(=O)c2cc(NCCN(C)C)nc(-c3ccccc3)n2)s1 [Compound 54]	B (EC1.5>1 and ≦10 uM)	150 to 300
CCN(CCN(C)C)c1cc(C(=O)Nc2ccccc2-c2nnc(C3CCC3)s2)nc(-c2ccccc2)n1 [Compound 51]	A (EC1.5≦1 uM)	150 to 300
CCN(CCN(C)C)c1cc(C(=O)Nc2ccccc2-c2ncc(-c3ccccc3)o2)nc(-c2ccccc2)c1 [Compound 34]	A (EC1.5≦1 uM)	≥ 300
CN(C)CCNc1cc(C(=O)Nc2ccccc2C(=O)Nc2cccc(S(C)(=O)=O)c2)nc(-c2ccccc2)n1 [Compound 154, 6-(2-(dimethylamino)ethylamino)-N-(2-(3-(methylsulfonyl)phenylcarbamoyl)phenyl)-2-phenylpyrimidine-4-carboxamide]	A (EC1.5≦1 uM)	≥ 300
CCN(CCN(C)C)c1cc(C(=O)Nc2ccccc2-c2ncc(C(C)(C)C)s2)nc(-c2ccccc2)n1 [Compound 63]	A (EC1.5≦1 uM)	150 to 300
CC(C)Cc1nnc(-c2ccccc2NC(=O)c2cc(NCCN(C)C)nc(-c3ccccc3)n2)s1 [Compound 60]	A (EC1.5≦1 uM)	150 to 300
CCCc1nnc(-c2ccccc2NC(=O)c2cc(N(CC)CCN(C)C)nc(-c3ccccc3)n2)s1 [Compound 79]	A (EC1.5≦1 uM)	≥ 300
Cc1ccc(NC(=O)c2ccccc2NC(=O)c2cc(NCCN(C)C)nc(-c3ccccc3)n2)cc1 [Compound 144, 6-(2-(dimethylamino)ethylamino)-2-phenyl-N-(2-(p-tolylcarbamoyl)phenyl)pyrimidine-4-carboxamide]	A (EC1.5≦1 uM)	150 to 300
O=C(Nc1ccccc1-c1nnc(N2CCOCC2)s1)c1cc(NC(CO)CO)nc(-c2ccccc2)n1 [Compound 102]	A (EC1.5≦1 uM)	≥ 300
CCN(CCN(C)C)c1cc(C(=O)Nc2ccccc2-c2nnc(N3CCOCC3)s2)nc(-c2ccccc2)n1 [Compound 105]	A (EC1.5≦1 uM)	≥ 300
CN(C)CCN(C)c1cc(C(=O)Nc2ccccc2-c2nnc(C3CCC3)s2)nc(-c2ccccc2)n1 [Compound 45]	A (EC1.5≦1 uM)	150 to 300
CN(C)CCNc1cc(C(=O)Nc2ccccc2-c2ncc(C(C)(C)C)s2)nc(-c2ccccc2)n1 [Compound 37]	B (EC1.5>1 and ≦10 uM)	150 to 300
CN(C)CCNc1cc(C(=O)Nc2ccccc2-c2nnc(-c3ccccc3)s2)nc(-c2ccccc2)n1 [Compound 25]	A (EC1.5≦1 uM)	150 to 300
CN(C)CCNC(=O)c1ccccc1NC(=O)c1cc(NCCN(C)C)nc(-c2ccccc2)n1 [Compound 121, 6-(2-(dimethylamino)ethylamino)-N-(2-(2-(dimethylamino)ethylcarbamoyl)phenyl)-2-phenylpyrimidine-4-carboxamide]	B (EC1.5>1 and ≦10 uM)	150 to 300
CN(C)CCNc1cc(C(=O)Nc2ccccc2C(=O)c2ccccc2)nc(-c2ccccc2)n1 [Compound 131]	B (EC1.5>1 and ≦10 uM)	150 to 300
NC(=O)c1nnc(-c2ccccc2NC(=O)c2cc(N3CCNCC3)nc(-c3ccccc3)n2)s1 [Compound 67]	A (EC1.5≦1 uM)	150 to 300
CCN(CCN(C)C)c1cc(C(=O)Nc2ccccc2-c2nnc(C(=O)N3CCOCC3)s2)nc(-c2ccccc2)n1 [Compound 87]	A (EC1.5≦1 uM)	≥ 300

Structure (SMILES)	EC1.5	Emax [%]
CN(C)CCNc1cc(C(=O)Nc2ccccc2-c2ccco2)nc(-c2ccccc2)n1 [Compound 16]	B (EC1.5>1 and ≦10 uM)	≥ 300
CCN(CCN(C)C)c1cc(C(=O)Nc2ccccc2C(=O)c2nccs2)nc(-c2ccccc2)n1 [Compound 177]	A (EC1.5≦1 uM)	≥ 300
CCc1nnc(-c2ccccc2NC(=O)c2cc(N(C)CCNC)nc(-c3ccccc3)n2)s1 [Compound 52]	A (EC1.5≦1 uM)	150 to 300
CC(C)(C)c1cnc(-c2ccccc2NC(=O)c2cc(N3CCOCC3)cc(-c3ccccc3)n2)o1 [Compound 70]	A (EC1.5≦1 uM)	150 to 300
CCN(CCN(C)C)c1cc(C(=O)Nc2ccccc2-c2nnc(C(N)=O)s2)nc(-c2ccccc2)n1 [Compound 71]	A (EC1.5≦1 uM)	150 to 300
O=C(Nc1ccccc1-c1nnc(N2CCOCC2)s1)c1cc(N2CCOCC2)nc(-c2ccccc2)n1 [Compound 100]	A (EC1.5≦1 uM)	150 to 300
CCN(CCN(C)C)c1cc(C(=O)Nc2ccccc2-c2nnc(-c3ccccn3)s2)nc(-c2ccccc2)n1 [Compound 74]	A (EC1.5≦1 uM)	≥ 300
CN(C)CCNc1cc(C(=O)Nc2ccccc2-c2ncc(C(C)(C)C)o2)nc(-c2ccccc2)c1 [Compound 31]	B (EC1.5>1 and ≦10 uM)	≥ 300
CCN(CCN(C)C)c1cc(C(=O)Nc2ccccc2C(=O)NC2CCC2)nc(-c2ccccc2)n1 [Compound 164, N-(2-(cyclobutylcarbamoyl)phenyl)-6-((2-(dimethylamino)ethyl)(ethyl)amino)-2-phenylpyrimidine-4-carboxamide]	A (EC1.5≦1 uM)	≥ 300
Cc1cnc(-c2ccccc2NC(=O)c2cc(NCCN(C)C)nc(-c3ccccc3)n2)s1 [Compound 22]	B (EC1.5>1 and ≦10 uM)	≥ 300
CN(C)CCNc1cc(C(=O)Nc2ccccc2C(=O)Nc2ccccc2C(N)=O)nc(-c2ccccc2)n1 [Compound 150, N-(2-(2-carbamoylphenylcarbamoyl)phenyl)-6-(2-(dimethylamino)ethylamino)-2-phenylpyrimidine-4-carboxamide]	A (EC1.5≦1 uM)	≥ 300
CC(=O)c1ccccc1NC(=O)c1cc(NC2CCN(C(C)C)CC2)nc(-c2ccccc2)n1 [Compound 137]	A (EC1.5≦1 uM)	≥ 300
COCCNc1cc(C(=O)Nc2ccccc2-c2nnc(N3CCN4CCC[C@H]4C3)s2)nc(-c2ccccc2)n1 [Compound 117]	A (EC1.5≦1 uM)	150 to 300
CN(C)CCNc1cc(C(=O)Nc2ccccc2C(=O)NCCC(=O)O)nc(-c2ccccc2)n1 [Compound 130, 3-(2-(6-(2-(dimethylamino)ethylamino)-2-phenylpyrimidine-4-carboxamido)benzamido)propanoic acid]	B (EC1.5>1 and ≦10 uM)	150 to 300
COCCNC(=O)c1ccccc1NC(=O)c1cc(NCCN(C)C)nc(-c2ccccc2)n1 [Compound 122, 6-(2-(dimethylamino)ethylamino)-N-(2-(2-methoxyethylcarbamoyl)phenyl)-2-phenylpyrimidine-4-carboxamide]	C (EC1.5>10 uM)	≥ 300
CC(C)c1nnc(-c2ccccc2NC(=O)c2cc(NCCN(C)C)nc(-c3ccccc3)n2)s1 [Compound 72]	A (EC1.5≦1 uM)	≥ 300
CN(C)CCNc1cc(C(=O)Nc2ccccc2-c2nc(-c3ccccc3)cs2)nc(-c2ccccc2)n1 [Compound 14]	B (EC1.5>1 and ≦10 uM)	150 to 300
O=C(Nc1ccccc1-c1nncs1)c1cc(NC(CO)CO)nc(-c2ccccc2)n1 [Compound 99]	A (EC1.5≦1 uM)	≥ 300
CN(C)CCNc1cc(C(=O)Nc2ccccc2C(=O)Nc2cccc(Cl)c2)nc(-c2ccccc2)n1 [Compound 145, N-(2-(3-chlorophenylcarbamoyl)phenyl)-6-(2-(dimethylamino)ethylamino)-2-phenylpyrimidine-4-carboxamide]	A (EC1.5≦1 uM)	≥ 300
O=C(Nc1ccccc1C(=O)c1nccs1)c1cc(N2CCOCC2)nc(-c2ccccc2)n1 [Compound 176]	A (EC1.5≦1 uM)	150 to 300

— US20110039847A1, “AMIDE DERIVATIVES AS SIRTUIN MODULATORS” (Sirtris Pharmaceuticals, Inc, priority 2007, published 2011)
